Values joined by “and” are separate entries in the source; they are usually repeats but may differ in a detail not shown here. Equal entries are not always repeated. Structures can show the parent of a compound that is named as a salt.
Experiments:
Type in all cases: in vivo
[1] = test system: Echinochloa oryzoides (Ard.) Fritsch.; test: Preemergence weed control under flooded paddy conditions, ECHORC (Watergrass (Calif.)); settings: for ECHORC: herbicidal effect rating 0-9, three to four weeks after treatment; as to herbicidal effect rating, ECHORC: meaning of each grade not given here
[2] = test system: Cyperus iria; test: Preemergence weed control under flooded paddy conditions, CYPIR (Rice Flatsedge); settings: flooded paddy; for CYPIR: herbicidal effect rating 0-9, three to four weeks after treatment; for CYPIR herbicidal rating / herbicidal effect rating, CYPIR: rated three to four weeks after treatment; as to herbicidal effect rating, CYPIR: meaning of each grade not given here
[3] = test system: Cyperus serotinus, Rottb.; test: Preemergence weed control under flooded paddy conditions, CYPSE (Flatsedge); settings: for CYPSE: herbicidal effect rating 0-9, three to four weeks after treatment; for CYPSE herbicidal rating / herbicidal effect rating, CYPSE: rated three to four weeks after treatment; as to herbicidal effect rating, CYPSE: meaning of each grade not given here
[4] = test system: Monochoria vaginalis, Presl.; test: Preemergence weed control under flooded paddy conditions, MOOVA (Monochoria); settings: for MOOVA: preemergence weeds, herbicidal effect rating 0-9, three to four weeks after treatment; for MOOVA / MOOVA herbicidal rating: flooded paddy; for MOOVA herbicidal rating: preemergence, rated three to four weeks after treatment; as to herbicidal effect rating, MOOVA: meaning of each grade not given here
[5] = test system: Sagittaria pygmaea, L.; test: Preemergence weed control under flooded paddy conditions, SAGPY (Arrowhead (Pygmaea)); settings: for SAGPY: herbicidal effect rating 0-9, three to four weeks after treatment; as to herbicidal effect rating, SAGPY: meaning of each grade not given here
[6] = 0.0620 kg/ha, preemergence weeds, flooded paddy
[7] = 0.1250 kg/ha, preemergence weeds, flooded paddy
[8] = 0.2500 kg/ha, preemergence weeds, flooded paddy
[9] = 0.0620 kg/ha, preemergence weeds
[10] = 0.1250 kg/ha, preemergence weeds
[11] = 0.2500 kg/ha, preemergence weeds
[12] = 0.0320 kg/ha, preemergence weeds, flooded paddy
[13] = 0.0320 kg/ha, preemergence weeds
[14] = 0.0320 kg/ha, preemergence, flooded paddy, rated three to four weeks after treatment
[15] = 0.0620 kg/ha, preemergence, flooded paddy, rated three to four weeks after treatment
[16] = 0.1250 kg/ha, preemergence, flooded paddy, rated three to four weeks after treatment
[17] = 0.2500 kg/ha, preemergence, flooded paddy, rated three to four weeks after treatment
[18] = Rate 0.0320 kg/ha, preemergence, flooded paddy, rated three to four weeks after treatment
[19] = Rate 0.0620 kg/ha, preemergence, flooded paddy, rated three to four weeks after treatment
[20] = Rate 0.1250 kg/ha, preemergence, flooded paddy, rated three to four weeks after treatment
[21] = Rate 0.2500 kg/ha, preemergence, flooded paddy, rated three to four weeks after treatment
[22] = Rate 0.0320 kg/ha, preemergence
[23] = Rate 0.0620 kg/ha, preemergence
[24] = Rate 0.1250 kg/ha, preemergence
[25] = Rate 0.2500 kg/ha, preemergence
[26] = Rate 0.0320 kg/ha, preemergence weeds, flooded paddy, rated three to four weeks after treatment
[27] = Rate 0.0620 kg/ha, preemergence weeds, flooded paddy, rated three to four weeks after treatment
[28] = Rate 0.1250 kg/ha, preemergence weeds, flooded paddy, rated three to four weeks after treatment
[29] = Rate 0.2500 kg/ha, preemergence weeds, flooded paddy, rated three to four weeks after treatment
[30] = Rate 0.0320 kg/ha, preemergence weeds
[31] = Rate 0.0620 kg/ha, preemergence weeds
[32] = Rate 0.1250 kg/ha, preemergence weeds
[33] = Rate 0.2500 kg/ha, preemergence weeds

Cn1c(C(F)(F)F)cc(=O)n(-c2ccc3snc(C(SCCO)SCCO)c3c2)c1=O [Example 419, 1,2-Benzisothiazole-3-carboxaldehyde, 5-[3,6-dihydro-3-methyl-2,6-dioxo-4-(trifluoromethyl)-1(2H)-pyrimidinyl]-, 3-[bis(2-hydroxyethyl)dithioacetal]]
ECHORC [1, 6]: 0.0
ECHORC [1, 7]: 2.0
ECHORC [1, 8]: 7.0
CYPIR [2, 9]: 0.0
CYPIR [2, 10]: 3.0
CYPIR [2, 11]: 6.0
CYPSE [3, 9]: 0.0
CYPSE [3, 10]: 0.0
CYPSE [3, 11]: 0.0
MOOVA ([4]; 0.0620 kg/ha): 0.0
MOOVA ([4]; 0.1250 kg/ha): 4.0
MOOVA ([4]; 0.2500 kg/ha): 5.0

CC(OS(=O)(=O)C(C)C)c1nsc2ccc(-n3c(=O)cc(C(F)(F)F)n(C)c3=O)cc12 (stereo not drawn) [Example 413, 2,4(1H,3H)-Pyrimidinedione, 3-[3-(1-hydroxyethyl)-1,2-benzisothiazol-5-yl]-1-methyl-6-(trifluoromethyl)-, 1-methylethanesulfonate (ester)]
ECHORC [1, 12]: 0.0
ECHORC [1, 6]: 0.0
ECHORC [1, 7]: 0.0
ECHORC [1, 8]: 6.0
CYPIR [2, 13]: 0.0
CYPIR [2, 9]: 2.0
CYPIR [2, 10]: 5.0
CYPIR [2, 11]: 7.0
CYPSE [3, 13]: 0.0
CYPSE [3, 9]: 3.0
CYPSE [3, 10]: 5.0
CYPSE [3, 11]: 9.0
MOOVA ([4]; 0.0320 kg/ha): 7.0
MOOVA ([4]; 0.0620 kg/ha): 9.0
MOOVA ([4]; 0.1250 kg/ha): 9.0
MOOVA ([4]; 0.2500 kg/ha): 9.0

CC(=O)OCCSC(SCCOC(C)=O)c1nsc2ccc(-n3c(=O)cc(C(F)(F)F)n(C)c3=O)cc12 [Example 418, 1,2-Benzisothiazole-3-carboxaldehyde, 5-[3,6-dihydro-3-methyl-2,6-dioxo-4-(trifluoromethyl)-1(2H)-pyrimidinyl]-, 3-[bis(2-hydroxyethyl)dithioacetal], diacetate (diester)]
ECHORC [1, 6]: 0.0
ECHORC [1, 7]: 1.0
ECHORC [1, 8]: 3.0
CYPIR [2, 9]: 0.0
CYPIR [2, 10]: 0.0
CYPIR [2, 11]: 0.0
CYPSE [3, 9]: 0.0
CYPSE [3, 11]: 0.0
MOOVA ([4]; 0.0620 kg/ha): 0.0
MOOVA ([4]; 0.1250 kg/ha): 0.0
MOOVA ([4]; 0.2500 kg/ha): 0.0

CC(C)N(C(C)C)S(=O)(=O)NC(=O)C(C)(C)c1nsc2ccc(-n3c(=O)cc(C(F)(F)F)n(C)c3=O)cc12 [Example 511, 1,2-Benzisothiazole-3-acetamide, 5-[3,6-dihydro-3-methyl-2,6-dioxo-4-(trifluoromethyl)-1(2H)-pyrimidinyl]-N-(diisopropylsulfamoyl)-alpha, alpha-dimethyl-]
ECHORC herbicidal rating [1, 14]: 0.0
ECHORC herbicidal rating [1, 15]: 2.0
ECHORC herbicidal rating [1, 16]: 5.0
ECHORC herbicidal rating [1, 17]: 7.0
CYPIR herbicidal rating ([2]; 0.0320 kg/ha, preemergence): 0.0
CYPIR herbicidal rating ([2]; 0.0620 kg/ha, preemergence): 0.0
CYPIR herbicidal rating ([2]; 0.1250 kg/ha, preemergence): 2.0
CYPIR herbicidal rating ([2]; 0.2500 kg/ha, preemergence): 7.0
CYPSE herbicidal rating ([3]; 0.0320 kg/ha, preemergence): 0.0
CYPSE herbicidal rating ([3]; 0.0620 kg/ha, preemergence): 0.0
CYPSE herbicidal rating ([3]; 0.1250 kg/ha, preemergence): 3.0
CYPSE herbicidal rating ([3]; 0.2500 kg/ha, preemergence): 3.0
SAGPY herbicidal rating [5, 14]: 0.0
SAGPY herbicidal rating [5, 15]: 0.0
SAGPY herbicidal rating [5, 16]: 0.0
SAGPY herbicidal rating [5, 17]: 7.0

CC(=O)OCCCSC(SCCCOC(C)=O)c1nsc2ccc(-n3c(=O)cc(C(F)(F)F)n(C)c3=O)cc12 [Example 426, 1,2-Benzisothiazole-3-carboxaldehyde, 5-[3,6-dihydro-3-methyl-2,6-dioxo-4-(trifluoromethyl)-1(2H)-pyrimidinyl]-, 3-[bis(3-hydroxypropyl)dithioacetal], diacetate (diester)]
ECHORC [1, 12]: 5.0
ECHORC [1, 6]: 5.0
ECHORC [1, 7]: 5.0
ECHORC [1, 8]: 9.0
CYPIR [2, 13]: 5.0
CYPIR [2, 9]: 7.0
CYPIR [2, 10]: 7.0
CYPIR [2, 11]: 9.0
CYPSE [3, 13]: 0.0
CYPSE [3, 9]: 0.0
CYPSE [3, 10]: 0.0
CYPSE [3, 11]: 2.0
SAGPY [5, 12]: 0.0
SAGPY [5, 6]: 2.0
SAGPY [5, 7]: 4.0
SAGPY [5, 8]: 4.0

Cn1c(C(F)(F)F)cc(=O)n(-c2ccc3snc(C(=O)NOS(=O)(=O)O)c3c2)c1=O [Example 417, 1,2-Benzisothiazole-3-carbohydroxamic acid, 5-[3,6-dihydro-3-methyl-2,6-dioxo-4-(trifluoromethyl)-1(2H)-pyrimidinyl]-, hydrogen sulfate (ester)]
ECHORC [1, 12]: 0.0
ECHORC [1, 6]: 0.0
ECHORC [1, 7]: 3.0
ECHORC [1, 8]: 3.0
CYPIR [2, 13]: 4.0
CYPIR [2, 9]: 4.0
CYPIR [2, 10]: 5.0
CYPIR [2, 11]: 6.0
CYPSE [3, 10]: 3.0
MOOVA ([4]; 0.0320 kg/ha): 6.0
MOOVA ([4]; 0.0620 kg/ha): 6.0
MOOVA ([4]; 0.1250 kg/ha): 9.0
MOOVA ([4]; 0.2500 kg/ha): 9.0

Cc1ccc(OC(C)C(=O)[O-])c(-c2nsc3ccc(-n4c(=O)cc(C(F)(F)F)n(C)c4=O)cc23)c1.[Na+] (racemic) [Example 82, Sodium 2-{{2-{5-[3,6-dihydro-3-methyl-2,6-dioxo-4-(trifluoromethyl)-1(2H)-pyrimidinyl]-1,2-benzisothiazol-3-yl}-p-tolyl}oxy}propionate, DL-]
herbicidal effect rating, ECHORC ([1]; 0.0313 kg/ha, preemergence, flooded paddy, rated three to four weeks after treatment): 9.0
herbicidal effect rating, ECHORC ([1]; 0.0625 kg/ha, preemergence, flooded paddy, rated three to four weeks after treatment): 9.0
herbicidal effect rating, ECHORC [1, 16]: 9.0
herbicidal effect rating, ECHORC [1, 17]: 9.0

CC(=O)OCCOC(=O)COc1ccc(C)cc1-c1nsc2ccc(-n3c(=O)cc(C(F)(F)F)n(C)c3=O)cc12 [Example 578, Acetic acid, {{2-{5-[3,6-dihydro-3-methyl-2,6-dioxo-4-(trifluoromethyl)-1(2H)-pyrimidinyl]-1,2-benzisothiazol-3-yl}-p-tolyl}oxy}-, 2-hydroxyethyl ester, acetate (ester)]
herbicidal effect rating, ECHORC [1, 18]: 5.0
herbicidal effect rating, ECHORC [1, 19]: 6.0
herbicidal effect rating, ECHORC [1, 20]: 7.0
herbicidal effect rating, ECHORC [1, 21]: 9.0
herbicidal effect rating, CYPIR [2, 22]: 4.0
herbicidal effect rating, CYPIR [2, 23]: 5.0
herbicidal effect rating, CYPIR [2, 24]: 5.0
herbicidal effect rating, CYPIR [2, 25]: 7.0
herbicidal effect rating, CYPSE [3, 22]: 3.0
herbicidal effect rating, CYPSE [3, 23]: 6.0
herbicidal effect rating, CYPSE [3, 24]: 6.0
herbicidal effect rating, CYPSE [3, 25]: 9.0
herbicidal effect rating, SAGPY [5, 18]: 3.0
herbicidal effect rating, SAGPY [5, 19]: 6.0
herbicidal effect rating, SAGPY [5, 20]: 6.0
herbicidal effect rating, SAGPY [5, 21]: 9.0

COC(=O)[C@@H](C)Oc1ccc(C)cc1-c1nsc2ccc(-n3c(=O)cc(C(F)(F)F)n(C)c3=O)cc12 [Example 14, Methyl 2-{{2-{5-[3,6-dihydro-3-methyl-2,6-dioxo-4-(trifluoromethyl)-1(2H)-pyrimidinyl]-1,2-benzisothiazol-3-yl}-p-tolyl}oxy}propionate, (R)-]
herbicidal effect rating, ECHORC ([1]; in vivo): 7.5 and 6.5 and 5.0 and 4.0
herbicidal effect rating, MOOVA ([4]; in vivo): 9.0
herbicidal effect rating, SAGPY ([5]; in vivo): 0.0

Cc1ccc(OCC(=O)NS(=O)(=O)CCl)c(-c2nsc3ccc(-n4c(=O)cc(C(F)(F)F)n(C)c4=O)cc23)c1 [Example 343]
herbicidal effect rating, ECHORC [1, 26]: 3.0
herbicidal effect rating, ECHORC [1, 27]: 6.0
herbicidal effect rating, ECHORC [1, 28]: 7.0
herbicidal effect rating, ECHORC [1, 29]: 9.0
herbicidal effect rating, CYPIR [2, 30]: 0.0
herbicidal effect rating, CYPIR [2, 31]: 0.0
herbicidal effect rating, CYPIR [2, 32]: 0.0
herbicidal effect rating, CYPIR [2, 33]: 6.0
herbicidal effect rating, CYPSE [3, 30]: 0.0
herbicidal effect rating, CYPSE [3, 31]: 3.0
herbicidal effect rating, CYPSE [3, 32]: 4.0
herbicidal effect rating, CYPSE [3, 33]: 6.0
herbicidal effect rating, SAGPY [5, 26]: 0.0
herbicidal effect rating, SAGPY [5, 27]: 0.0
herbicidal effect rating, SAGPY [5, 28]: 0.0
herbicidal effect rating, SAGPY [5, 29]: 3.0

COCC(=O)OCc1nsc2ccc(-n3c(=O)cc(C(F)(F)F)n(C)c3=O)cc12 [Example 495, 2,4(1H,3H)-Pyrimidinedione, 3-[3-(hydroxymethyl)-1,2-benzisothiazol-5-yl]-1-methyl-6-(trifluoromethyl)-, methoxyacetate (ester)]
ECHORC herbicidal rating [1, 14]: 3.0
ECHORC herbicidal rating [1, 15]: 4.0
ECHORC herbicidal rating [1, 16]: 5.0
ECHORC herbicidal rating [1, 17]: 7.0
CYPIR herbicidal rating ([2]; 0.0320 kg/ha, preemergence): 6.0
CYPIR herbicidal rating ([2]; 0.0620 kg/ha, preemergence): 6.0
CYPIR herbicidal rating ([2]; 0.1250 kg/ha, preemergence): 7.0
CYPIR herbicidal rating ([2]; 0.2500 kg/ha, preemergence): 9.0
MOOVA herbicidal rating ([4]; 0.0320 kg/ha): 7.0
MOOVA herbicidal rating ([4]; 0.0620 kg/ha): 7.0
MOOVA herbicidal rating ([4]; 0.1250 kg/ha): 9.0
MOOVA herbicidal rating ([4]; 0.2500 kg/ha): 9.0
SAGPY herbicidal rating [5, 14]: 0.0
SAGPY herbicidal rating [5, 15]: 0.0
SAGPY herbicidal rating [5, 16]: 3.0
